Laboratory results: US20120070401A1, “Composition and Method for Promoting Wound Healing” (priority 2010, published 2012)

System: corneal reepithelialization
Assay: rabbit corneal wound healing model (corneal reepithelialization after 9.5-mm epithelial wound, fluorescein-stained wound area)
Assay type: in vivo, New Zealand White rabbits
Settings: n=10 per group
Text: Animals. One hundred and ten pathogen-free New Zealand White rabbits were obtained from a commercial laboratory. Animals were at least 18 weeks old and 2-3 kg body weight at the time of treatment.
Pre-Treatment Examinations. Prior to placement on study, each animal underwent a pre-treatment ophthalmic examination (slit lamp with fluorescein staining). […] Animals were then randomly assigned to eleven treatment groups (10 animals per group) according to a modified Latin square design. Animals were fasted at least 12 hours prior to corneal wound surgery.
Wounding Procedure. […]
Corneal Wound Evaluation. The corneal wound condition was evaluated immediately post wounding and at 12, 24, 36, 48, 60, and 72 hours. […] From the photographs, the perimeter of the wounds was determined using a Mechanical Polar Planimeter (LASISCO; Los Angeles, Calif.).
Numerical results were expressed as mean±SEM, n=10, unless indicated otherwise. Data were analyzed by a two-way ANOVA with repeated measures followed by the Tukey-Kramer test. In addition, overall effects were evaluated by analyzing integrated responses calculated as the areas under the curve (AUC) for each treatment over the time course. […] Integrated responses were analyzed by a one-way ANOVA followed by the Tukey-Kramer test. […]

In the case of benzalkonium chloride [BAK], the “integrated wound area (AUC over the time course) compared to the saline control” value (0 to 72 hours, trapezoidal rule) is reported as “no significant effects” and the “effect on corneal reepithelialization time-course (wound area) compared to the saline control” value (topical, 14 instillations over 72 hours, time points 12-72 hours) is reported as “No significant effects”.
